Experimental findings from patent US20250179061A1 (SIRONAX LTD., priority 2022, published 2025) are described below.

Where two headings read alike, the source gives them in different places. Where only a bound is given, the exact number is not on record here.

In this assay the test system is HT-29 cells. In words: HT-29 necroptosis cell viability assay (TNF-α/SMAC mimetic/zVAD-FMK, CellTiter-Glo). Format: cell-based. The settings on record: Homo sapiens, read-out: Activity. In a few lines: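 HT-29 cells (~5,000/well, overnight) in FBS-free McCoy's 5A with TNF-α 10 ng/ml, SMAC mimetic 6 μM and zVAD-FMK 10 μM plus 10-point 1:3 compound titration, 20 h at 37°C. ATP measured by CellTiter-Glo luminescence; IC50 as geometric mean of duplicates.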

Where [1] appears, read: HT-29, HT-29 necroptosis cell viability assay, class symbols for IC50.
The mark [2] stands for this setting: HT-29, HT-29 necroptosis cell viability, IC50 class symbols.

Consider `CCOC1CN(c2cc(S(=O)(=O)c3ccc(-n4ncn(Cc5c(F)cccc5F)c4=O)cc3)ccn2)C1` [Example 492, 4-(2,6-difluorobenzyl)-2-(4-((2-(3-ethoxyazetidin-1-yl)pyridin-4-yl)sulfonyl)phenyl)-2,4-dihydro-3H-1,2,4-triazol-3-one], for which the IC50 under setting [1] was below 0.1 µM.
Regarding `Cc1ncc(C(N)=O)n1Cc1ccc(-n2ncn(Cc3c(F)cccc3F)c2=O)cc1F` [Example 104, 1-(4-(4-(2,6-difluorobenzyl)-5-oxo-4,5-dihydro-1H-1,2,4-triazol-1-yl)-2-fluorobenzyl)-2-methyl-1H-imidazole-5-carboxamide], the IC50 (HT-29 cells stimulated with TNF-α (10 ng/ml), SMAC mimetic (6 μM) and zVAD-FMK (10 μM), 20 hours, CellTiter-Glo ATP luminescence, geometric mean IC50 from 10 points) is below 0.1 µM.
For `COC1(C)CN(c2nccc(Oc3ccc(-n4ncn(Cc5c(F)cccc5F)c4=O)cc3Cl)c2F)C1` [Example 497, 2-(3-chloro-4-((3-fluoro-2-(3-methoxy-3-methylazetidin-1-yl)pyridin-4-yl)oxy)phenyl)-4-(2,6-difluorobenzyl)-2,4-dihydro-3H-1,2,4-triazol-3-one], the IC50 under setting [1] is below 0.1 µM.
On the same count and under the same terms, then `C/C(=N\O)c1nc(C)c(Oc2ccc(-n3ncn(Cc4c(F)cccc4F)c3=O)cc2F)s1` [Example 164, 4-(2,6-difluorobenzyl)-2-(3-fluoro-4-((2-(1-(hydroxyimino)ethyl)-4-methylthiazol-5-yl)oxy)phenyl)-2,4-dihydro-3H-1,2,4-triazol-3-one], with below 0.1 µM.
On to `Cc1nc(C(C)(C)O)cn1Cc1ccc(-n2nc3n(c2=O)C(c2ccccc2)CC3)cc1F` (centres unmarked) [Example 136, 2-(3-fluoro-4-((4-(2-hydroxypropan-2-yl)-2-methyl-1H-imidazol-1-yl)methyl)phenyl)-5-phenyl-2,5,6,7-tetrahydro-3H-pyrrolo[2,1-c][1,2,4]triazol-3-one], for which the IC50 under setting [1] is 1 to 10 µM.
On to `CCOC1CN(c2cc(Oc3ccc(-n4ncn(Cc5c(F)cccc5F)c4=O)cc3)c(C)cn2)C1` [Example 266, 4-(2,6-difluorobenzyl)-2-(4-((2-(3-ethoxyazetidin-1-yl)-5-methylpyridin-4-yl)oxy)phenyl)-2,4-dihydro-3H-1,2,4-triazol-3-one], for which the IC50 under setting [2] is below 0.1 µM.
As to `Cc1nc(C(=O)N2C[C@H](N)[C@@H]2C)sc1Oc1ccc(-n2ncn(Cc3ccccc3F)c2=O)cc1F` [Example 587, 2-(4-((2-((2S,3S)-3-amino-2-methylazetidine-1-carbonyl)-4-methylthiazol-5-yl)oxy)-3-fluorophenyl)-4-(2-fluorobenzyl)-2,4-dihydro-3H-1,2,4-triazol-3-one], under setting [1], the IC50 was below 0.1 µM.
Take `Cc1c(Oc2ccc(-n3ncn(Cc4c(F)cccc4F)c3=O)cc2)ccnc1NC12CC(C#N)(C1)C2` [Example 247, 3-((4-(4-(4-(2,6-difluorobenzyl)-5-oxo-4,5-dihydro-1H-1,2,4-triazol-1-yl)phenoxy)-3-methylpyridin-2-yl)amino)bicyclo[1.1.1]pentane-1-carbonitrile]: the IC50 under setting [2] was below 0.1 µM.
Regarding `N#Cc1ccccc1Oc1ccc(-n2ncn(Cc3c(F)cccc3F)c2=O)cc1` [Example 404, 2-(4-(4-(2,6-difluorobenzyl)-5-oxo-4,5-dihydro-1H-1,2,4-triazol-1-yl)phenoxy)benzonitrile], the IC50 under setting [2] lay within 0.1 to 1 µM.
`C[C@H]1[C@@H](NC(=O)OC(C)(C)C)CN1c1cc(Oc2ccc(-n3ncn(Cc4c(F)cccc4F)c3=O)cc2F)c(F)cn1` [Example 291, tert-butyl ((2S,3S)-1-(4-(4-(4-(2,6-difluorobenzyl)-5-oxo-4,5-dihydro-1H-1,2,4-triazol-1-yl)-2-fluorophenoxy)-5-fluoropyridin-2-yl)-2-methylazetidin-3-yl)carbamate]: the IC50 under setting [2] is below 0.1 µM.
Regarding `Cc1nc(Oc2cccnc2)sc1-n1ncn(Cc2c(F)cccc2F)c1=O` [Example 166, 4-(2,6-difluorobenzyl)-2-(4-methyl-2-(pyridin-3-yloxy)thiazol-5-yl)-2,4-dihydro-3H-1,2,4-triazol-3-one], the IC50 under setting [1] lay within 0.1 to 1 µM.
